{"source": "patent US12473250B2", "about": "“Molecular design of new antibiotics and antibiotic adjuvants against MCR strains” (priority 2019, dated 2025)", "tested_on": "various pathogens", "test": "organism not typed", "assay_type": "cell-based", "description": "The MICs of the individual drugs and LC compound in combinations were determined using the broth microdilution technique as recommended by the CLSI whereby the two anti-microbial agents were added in an equal amount. (e.g.: 50 μL of Colistin: 50 μL of LC compounds). Diluted media containing compounds and antibiotics will be serially diluted 2-fold, and LC compounds and antibiotics alone or in combination will be assayed at fixed synergy concentration. In all cases, the lowest concentration at which no visible growth occurred was be recorded to be the MIC value of individual and combined antibacterial agents. The results were obtained after 24 hours of incubation.\nUsing the combination of LC100 and colistin, the activity of a broad range of strains was further tested (Table 7)."}
{"substance": "Colistin", "values": [{"measurement": "MIC", "setting": "E. Coli CRE 17232", "value": 0.78, "unit": "µg/mL"}, {"measurement": "FOLD CHANGES [Absorbance (abs; OD 600 nm)] No Treatment [Bacteria alone]: Colistin 0.5 μg", "setting": "E. Coli CRE 17528", "value": 1.45}, {"measurement": "FOLD CHANGES [Absorbance (abs; OD 600 nm)] No Treatment [Bacteria alone]: MIC Colistin", "setting": "E. Coli CRE 17528", "value": 20.21}, {"measurement": "MIC", "setting": "E. Coli CRE 17528", "value": 0.78, "unit": "µg/mL"}, {"measurement": "FOLD CHANGES [Absorbance (abs; OD 600 nm)] No Treatment [Bacteria alone]: Colistin 0.5 μg", "setting": "E. Coli CRE 19211", "value": 1.17}, {"measurement": "FOLD CHANGES [Absorbance (abs; OD 600 nm)] No Treatment [Bacteria alone]: MIC Colistin", "setting": "E. Coli CRE 19211", "value": 20.56}, {"measurement": "MIC", "setting": "E. Coli CRE 19211", "value": 1.56, "unit": "µg/mL"}, {"measurement": "FOLD CHANGES [Absorbance (abs; OD 600 nm)] No Treatment [Bacteria alone]: Colistin 0.5 μg", "setting": "E. Coli CRE 34685", "value": 1.49}, {"measurement": "FOLD CHANGES [Absorbance (abs; OD 600 nm)] No Treatment [Bacteria alone]: MIC Colistin", "setting": "E. Coli CRE 34685", "value": 22.63}, {"measurement": "MIC", "setting": "E. Coli CRE 34685", "value": 0.78, "unit": "µg/mL"}, {"measurement": "FOLD CHANGES [Absorbance (abs; OD 600 nm)] No Treatment [Bacteria alone]: Colistin 0.5 μg", "setting": "E. Coli DB 16027R", "value": 1.23}, {"measurement": "FOLD CHANGES [Absorbance (abs; OD 600 nm)] No Treatment [Bacteria alone]: MIC Colistin", "setting": "E. Coli DB 16027R", "value": 14.89}, {"measurement": "MIC", "setting": "E. Coli DB 16027R", "value": 0.78, "unit": "µg/mL"}, {"measurement": "FOLD CHANGES [Absorbance (abs; OD 600 nm)] No Treatment [Bacteria alone]: Colistin 0.5 μg", "setting": "KLPN ATCC 4352", "value": 1.81}, {"measurement": "FOLD CHANGES [Absorbance (abs; OD 600 nm)] No Treatment [Bacteria alone]: MIC Colistin", "setting": "KLPN ATCC 4352", "value": 3.54}, {"measurement": "MIC", "setting": "KLPN ATCC 4352", "value": 0.78, "unit": "µg/mL"}, {"measurement": "FOLD CHANGES [Absorbance (abs; OD 600 nm)] No Treatment [Bacteria alone]: Colistin 0.5 μg", "setting": "KLPN ATCC 10031", "value": 1.25}, {"measurement": "FOLD CHANGES [Absorbance (abs; OD 600 nm)] No Treatment [Bacteria alone]: MIC Colistin", "setting": "KLPN ATCC 10031", "value": 10.11}, {"measurement": "MIC", "setting": "KLPN ATCC 10031", "value": 1.56, "unit": "µg/mL"}, {"measurement": "FOLD CHANGES [Absorbance (abs; OD 600 nm)] No Treatment [Bacteria alone]: Colistin 0.5 μg", "setting": "KLPN ATCC 27736", "value": 1.21}, {"measurement": "FOLD CHANGES [Absorbance (abs; OD 600 nm)] No Treatment [Bacteria alone]: MIC Colistin", "setting": "KLPN ATCC 27736", "value": 9.67}, {"measurement": "MIC", "setting": "KLPN ATCC 27736", "value": 0.78, "unit": "µg/mL"}, {"measurement": "FOLD CHANGES [Absorbance (abs; OD 600 nm)] No Treatment [Bacteria alone]: Colistin 0.5 μg", "setting": "KLPN ATCC 35657", "value": 1.57}, {"measurement": "FOLD CHANGES [Absorbance (abs; OD 600 nm)] No Treatment [Bacteria alone]: MIC Colistin", "setting": "KLPN ATCC 35657", "value": 13.49}, {"measurement": "MIC", "setting": "KLPN ATCC 35657", "value": 1.56, "unit": "µg/mL"}, {"measurement": "FOLD CHANGES [Absorbance (abs; OD 600 nm)] No Treatment [Bacteria alone]: Colistin 0.5 μg", "setting": "KLPN ATCC 700603", "value": 1.11}, {"measurement": "FOLD CHANGES [Absorbance (abs; OD 600 nm)] No Treatment [Bacteria alone]: MIC Colistin", "setting": "KLPN ATCC 700603", "value": 9.64}, {"measurement": "MIC", "setting": "KLPN ATCC 700603", "value": 1.56, "unit": "µg/mL"}, {"measurement": "FOLD CHANGES [Absorbance (abs; OD 600 nm)] No Treatment [Bacteria alone]: Colistin 0.5 μg", "setting": "KLPN CRE 7955", "value": 1.64}, {"measurement": "FOLD CHANGES [Absorbance (abs; OD 600 nm)] No Treatment [Bacteria alone]: MIC Colistin", "setting": "KLPN CRE 7955", "value": 10.28}, {"measurement": "MIC", "setting": "KLPN CRE 7955", "value": 1.56, "unit": "µg/mL"}, {"measurement": "FOLD CHANGES [Absorbance (abs; OD 600 nm)] No Treatment [Bacteria alone]: Colistin 0.5 μg", "setting": "KLPN CRE 15588", "value": 2.50}, {"measurement": "FOLD CHANGES [Absorbance (abs; OD 600 nm)] No Treatment [Bacteria alone]: MIC Colistin", "setting": "KLPN CRE 15588", "value": 7.39}, {"measurement": "MIC", "setting": "KLPN CRE 15588", "value": 0.78, "unit": "µg/mL"}, {"measurement": "FOLD CHANGES [Absorbance (abs; OD 600 nm)] No Treatment [Bacteria alone]: Colistin 0.5 μg", "setting": "KLPN CRE 16260", "value": 1.06}, {"measurement": "MIC", "setting": "KLPN CRE 16260", "value": ">50", "unit": "µg/mL"}, {"measurement": "FOLD CHANGES [Absorbance (abs; OD 600 nm)] No Treatment [Bacteria alone]: Colistin 0.5 μg", "setting": "KLPN CRE 27025", "value": 5.24}, {"measurement": "FOLD CHANGES [Absorbance (abs; OD 600 nm)] No Treatment [Bacteria alone]: MIC Colistin", "setting": "KLPN CRE 27025", "value": 11.84}, {"measurement": "MIC", "setting": "KLPN CRE 27025", "value": 0.78, "unit": "µg/mL"}, {"measurement": "FOLD CHANGES [Absorbance (abs; OD 600 nm)] No Treatment [Bacteria alone]: Colistin 0.5 μg", "setting": "KLPN CRE 55301", "value": 1.09}, {"measurement": "FOLD CHANGES [Absorbance (abs; OD 600 nm)] No Treatment [Bacteria alone]: MIC Colistin", "setting": "KLPN CRE 55301", "value": 9.00}, {"measurement": "MIC", "setting": "KLPN CRE 55301", "value": 0.78, "unit": "µg/mL"}, {"measurement": "FOLD CHANGES [Absorbance (abs; OD 600 nm)] No Treatment [Bacteria alone]: Colistin 0.5 μg", "setting": "PAE ATCC 9027", "value": 0.98}, {"measurement": "FOLD CHANGES [Absorbance (abs; OD 600 nm)] No Treatment [Bacteria alone]: MIC Colistin", "setting": "PAE ATCC 9027", "value": 8.80}, {"measurement": "MIC", "setting": "PAE ATCC 9027", "value": 1.56, "unit": "µg/mL"}, {"measurement": "FOLD CHANGES [Absorbance (abs; OD 600 nm)] No Treatment [Bacteria alone]: Colistin 0.5 μg", "setting": "PAE ATCC 9721", "value": 1.01}, {"measurement": "FOLD CHANGES [Absorbance (abs; OD 600 nm)] No Treatment [Bacteria alone]: MIC Colistin", "setting": "PAE ATCC 9721", "value": 5.80}, {"measurement": "MIC", "setting": "PAE ATCC 9721", "value": 1.56, "unit": "µg/mL"}, {"measurement": "FOLD CHANGES [Absorbance (abs; OD 600 nm)] No Treatment [Bacteria alone]: Colistin 0.5 μg", "setting": "PAE ATCC 15442", "value": 1.03}, {"measurement": "FOLD CHANGES [Absorbance (abs; OD 600 nm)] No Treatment [Bacteria alone]: MIC Colistin", "setting": "PAE ATCC 15442", "value": 14.00}, {"measurement": "MIC", "setting": "PAE ATCC 15442", "value": 1.56, "unit": "µg/mL"}, {"measurement": "FOLD CHANGES [Absorbance (abs; OD 600 nm)] No Treatment [Bacteria alone]: Colistin 0.5 μg", "setting": "PAE ATCC 27853", "value": 0.96}, {"measurement": "FOLD CHANGES [Absorbance (abs; OD 600 nm)] No Treatment [Bacteria alone]: MIC Colistin", "setting": "PAE ATCC 27853", "value": 8.35}, {"measurement": "MIC", "setting": "PAE ATCC 27853", "value": 0.78, "unit": "µg/mL"}, {"measurement": "FOLD CHANGES [Absorbance (abs; OD 600 nm)] No Treatment [Bacteria alone]: Colistin 0.5 μg", "setting": "PAE ATCC BAA-1744", "value": 1.11}, {"measurement": "FOLD CHANGES [Absorbance (abs; OD 600 nm)] No Treatment [Bacteria alone]: MIC Colistin", "setting": "PAE ATCC BAA-1744", "value": 6.81}, {"measurement": "MIC", "setting": "PAE ATCC BAA-1744", "value": 1.56, "unit": "µg/mL"}, {"measurement": "FOLD CHANGES [Absorbance (abs; OD 600 nm)] No Treatment [Bacteria alone]: Colistin 0.5 μg", "setting": "PAE DM 4150", "value": 1.02}, {"measurement": "FOLD CHANGES [Absorbance (abs; OD 600 nm)] No Treatment [Bacteria alone]: MIC Colistin", "setting": "PAE DM 4150", "value": 10.34}, {"measurement": "MIC", "setting": "PAE DM 4150", "value": 3.125, "unit": "µg/mL"}, {"measurement": "FOLD CHANGES [Absorbance (abs; OD 600 nm)] No Treatment [Bacteria alone]: Colistin 0.5 μg", "setting": "PAE DM 23155", "value": 1.30}, {"measurement": "FOLD CHANGES [Absorbance (abs; OD 600 nm)] No Treatment [Bacteria alone]: MIC Colistin", "setting": "PAE DM 23155", "value": 7.00}, {"measurement": "MIC", "setting": "PAE DM 23155", "value": 1.56, "unit": "µg/mL"}, {"measurement": "FOLD CHANGES [Absorbance (abs; OD 600 nm)] No Treatment [Bacteria alone]: Colistin 0.5 μg", "setting": "PAE DM 23257", "value": 1.02}, {"measurement": "FOLD CHANGES [Absorbance (abs; OD 600 nm)] No Treatment [Bacteria alone]: MIC Colistin", "setting": "PAE DM 23257", "value": 7.71}, {"measurement": "MIC", "setting": "PAE DM 23257", "value": 1.56, "unit": "µg/mL"}, {"measurement": "FOLD CHANGES [Absorbance (abs; OD 600 nm)] No Treatment [Bacteria alone]: Colistin 0.5 μg", "setting": "PAE DM 23376", "value": 0.93}, {"measurement": "FOLD CHANGES [Absorbance (abs; OD 600 nm)] No Treatment [Bacteria alone]: MIC Colistin", "setting": "PAE DM 23376", "value": 8.00}, {"measurement": "MIC", "setting": "PAE DM 23376", "value": 1.56, "unit": "µg/mL"}, {"measurement": "FOLD CHANGES [Absorbance (abs; OD 600 nm)] No Treatment [Bacteria alone]: Colistin 0.5 μg", "setting": "PAE DR 4877", "value": 1.30}, {"measurement": "FOLD CHANGES [Absorbance (abs; OD 600 nm)] No Treatment [Bacteria alone]: MIC Colistin", "setting": "PAE DR 4877", "value": 12.00}, {"measurement": "MIC", "setting": "PAE DR 4877", "value": 1.56, "unit": "µg/mL"}, {"measurement": "FOLD CHANGES [Absorbance (abs; OD 600 nm)] No Treatment [Bacteria alone]: Colistin 0.5 μg", "setting": "PAE DR 5790", "value": 1.06}, {"measurement": "FOLD CHANGES [Absorbance (abs; OD 600 nm)] No Treatment [Bacteria alone]: MIC Colistin", "setting": "PAE DR 5790", "value": 10.25}, {"measurement": "MIC", "setting": "PAE DR 5790", "value": 0.78, "unit": "µg/mL"}, {"measurement": "FOLD CHANGES [Absorbance (abs; OD 600 nm)] No Treatment [Bacteria alone]: Colistin 0.5 μg", "setting": "PAE DU 14476", "value": 0.90}, {"measurement": "FOLD CHANGES [Absorbance (abs; OD 600 nm)] No Treatment [Bacteria alone]: MIC Colistin", "setting": "PAE DU 14476", "value": 7.21}, {"measurement": "MIC", "setting": "PAE DU 14476", "value": 1.56, "unit": "µg/mL"}]}
